Assays:
[1] = Anti-acetylcholine Writhing Test; type: in vivo; settings: mice; for ED50: Mus musculus, read-out: ED50 (95% Confidence Limits); for ED50 / ED50 (95% Confidence Limits): expressed as free base
Excerpt: This response has been called writhing.

[2] = Anti-phenylquinone Writhing Test; type: in vivo; settings: Mus musculus, mice, expressed as free base, read-out: ED50 (95% Confidence Limits)
Anti-bradykinin Test = type: in vivo; settings: rats, expressed as free base; for ED50: Rattus norvegicus, read-out: ED50 (95% Confidence Limits)
[3] = EDTA Antinociceptive Test; type: in vivo; settings: Cavia porcellus, sc, 0.5 h; subcutaneous, guinea pig, 30 minutes; read-out: subcutaneously effective dose (reduces the response score to 6 or less)
Procedure: This is also a confirmatory evaluation of analgesic activity. The test animal is the guinea pig. A threshold intradermal dose of ethylenediaminetetraacetic acid (EDTA) which can reproducibly elicit a cumulative response score of 12-18 discrete episodes of jumping, rearing, running, vocalization and biting or scratching at the site of injection within 40 seconds after challenge is determined for each animal. Thirty minutes after the administration of saline or test compound to 6-7 animals per dose, each animal is again challenged with its own threshold dose of EDTA. An effective drug dose is considered to be one which reduces the response score to 6 or less.

Tail-flick Agonist Test = type: in vivo; settings: doses up to 120 mg./kg. subcutaneously, rats
[4] = Tail-flick Antagonist Test against morphine; settings: Rattus norvegicus, read-out: AD50 (95% Confidence Limits)
[5] = Tail-flick Antagonist Test against meperidine; settings: Rattus norvegicus, read-out: AD50 (95% Confidence Limits)
[6] = Tail-flick Antagonist Test against phenazocine; settings: for ED50: Rattus norvegicus, read-out: AD50 (95% Confidence Limits); for antagonist response at 1 mg./kg.: 1 mg./kg. subcutaneous; for antagonist response at 10 mg./kg.: 10 mg./kg. subcutaneous
[7] = Comparison in three of the foregoing tests with the compound lacking 9-amino; settings: relative to Gubitz compound

Nc1ccc2c(c1)N1CCN(CC3CC3)C(C2)C1 (racemic) [Example 1D, 4-cyclopropylmethyl-9-amino-3,4,5,6-tetrahydro-2H-1,5-methano-1,4-benzodiazocine]
ED50 ([1]; po): 5.9 mg/kg
ED50 ([1]; sc, subcutaneous): 3.2 mg/kg
ED50 (95% Confidence Limits) ([1]; oral): 5.9 (3.9-8.7) Mg./Kg.
ED50 (95% Confidence Limits) ([1]; subcutaneous): 3.2 (2.0-4.8) Mg./Kg.
ED50 ([2]; sc, subcutaneous): 1.8 mg/kg
ED50 ([2]; oral): 5.7 mg/kg
ED50 (Anti-bradykinin Test; sc, subcutaneous): 2.6 mg/kg
ED50 (Anti-bradykinin Test; oral): 5.4 mg/kg
ED50 (95% Confidence Limits) (Anti-bradykinin Test; subcutaneous): 2.6 (1.5-4.1) Mg./Kg.
minimal effective dose [3]: 1.25 mg/kg
tail-flick agonist activity (Tail-flick Agonist Test): at most inactive or questionably active
ED50 ([4]; sc): 8.6 mg/kg
ED50 ([5]; sc): 3.3 mg/kg
ED50 ([6]; sc): 1.6 mg/kg
AD50 (95% Confidence Limits) ([6]; subcutaneous, against phenazocine, expressed as free base): 1.6 (1.0-2.6) mg./kg.
times more potent than the compound of Formula A (lacking 9-amino) [7]: four to ten

c1ccc2c(c1)CC1CN2CCN1CC1CC1 (stereo not shown) [Compound of Formula A*, 4-cyclopropylmethyl-3,4,5,6-tetrahydro-2H-1,5-methano-1,4-benzodiazocine, reference compound]
ED50 ([1]; po): 32 mg/kg
ED50 ([1]; sc, subcutaneous): 12 mg/kg
ED50 (Anti-bradykinin Test; sc, subcutaneous): 21 mg/kg
ED50 ([6]; sc): 34 mg/kg

CCS(=O)(=O)O.CCS(=O)(=O)O.Nc1ccc2c(c1)N1CCN(CC3CC3)C(C2)C1 (stereo not shown) [Example 1E, 4-cyclopropylmethyl-9-amino-3,4,5,6-tetrahydro-2H-1,5-methano-1,4-benzodiazocine diethanesulfonate]
ED50 ([1]; sc, subcutaneous): 3.7 mg/kg
ED50 (Anti-bradykinin Test; oral): 4.2 mg/kg
tail-flick agonist activity (Tail-flick Agonist Test): at most inactive or questionably active
ED50 ([4]; po): 13 mg/kg
ED50 ([5]; po): 4.8 mg/kg
ED50 ([6]; po): 3.5 mg/kg

Nc1ccc2c(c1)N1CCN(CC3CC3)C(C2)C1 (stereo not shown) [Example 1J, levo-4-cyclopropylmethyl-9-3,4,5,6-tetrahydro-2H-1,5-methano-1,4-benzodiazocine]
response at 75 mg./kg. (highest dose tested) ([1]; 75 mg./kg. subcutaneous): 67%
ED50 (95% Confidence Limits) ([1]; subcutaneous): 40 Mg./Kg.
antagonist response at 1 mg./kg. ([6]; against phenazocine): 10%
antagonist response at 10 mg./kg. ([6]; against phenazocine): 6%
antagonist response at 80 mg./kg. ([6]; 80 mg./kg. subcutaneous, against phenazocine): 25%

Nc1ccc2c(c1)N1CCN(CC3CC3)C(C2)C1 (stereo not shown) [Example 1K, dextro-4-cyclpropylmethyl-9-amino-3,4,5,6-tetrahydro-2H-1,5-methano-1,4-benzodiazocine]
ED50 (95% Confidence Limits) ([1]; subcutaneous): 1.0 (0.62-2.0) Mg./Kg.
ED50 ([6]; sc): 0.31 mg/kg

C=CCN1CCN2CC1Cc1ccc(N)cc12 (stereo not shown) [Example 2E, 4-allyl-9-amino-3,4,5,6-tetrahydro-2H-1,5-methano-1,4-benzodiazocine diethanesulfonate hemihydrate]
ED50 ([1]; sc, subcutaneous): 30 mg/kg
ED50 ([6]; sc): 1.6 mg/kg

CCNc1ccc2c(c1)N1CCN(CC3CC3)C(C2)C1.Cl.Cl (stereo not shown) [Example 3B, 4-cyclopropylmethyl-9-ethylamino-3,4,5,6-tetrahydro-2H-1,5-methano-1,4-benzodiazocine dihydrochloride]
ED50 ([1]; sc, subcutaneous): 3.8 mg/kg
ED50 (Anti-bradykinin Test; sc, subcutaneous): 3.4 mg/kg
tail-flick agonist activity (Tail-flick Agonist Test): at most inactive or questionably active
ED50 ([6]; sc): 4.4 mg/kg

CCCCNc1ccc2c(c1)N1CCN(CC3CC3)C(C2)C1 (stereo not shown) [Example 4B, 4-cyclopropylmethyl-9-butylamino-3,4,5,6-tetrahydro-2H-1,5-methano-1,4-benzodiazocine]
ED50 ([1]; sc, subcutaneous): 1.6 mg/kg
ED50 (Anti-bradykinin Test; sc, subcutaneous): 2.9 mg/kg
tail-flick agonist activity (Tail-flick Agonist Test): at most inactive or questionably active
antagonist response at 1 mg./kg. ([6]; against phenazocine): 6%
antagonist response at 10 mg./kg. ([6]; against phenazocine): 0%
antagonist response at 20 mg./kg. ([6]; 20 mg./kg. subcutaneous, against phenazocine): 34%
toxic effects at 20 mg./kg. ([6]; 20 mg./kg. subcutaneous, rats): toxic effects
